Results from ChEMBL document CHEMBL3124777, “Synthesis and biological evaluation of thiazoline derivatives as new antimicrobial and anticancer agents” (Eur J Med Chem, 2014).
≈ marks a conversion by molar mass, not a printed value. Calls of active or inactive are those of the source. The calls are words filed in the database; no cut-off is given here.

Key:
C6 [1] = test: Inhibition of DNA synthesis in rat C6 cells assessed as BrdU incorporation at IC50 after 24 hrs by ELISA; assay type: functional, cell-based
C6 [2] = test: Inhibition of DNA synthesis in rat C6 cells assessed as BrdU incorporation after 24 hrs by ELISA; assay type: functional, cell-based
C6 [3] = test: Cytotoxicity against rat C6 cells after 24 hrs by MTT assay; assay type: functional, cell-based; conditions: C6, 24 h
NIH3T3 = test: Cytotoxicity against mouse NIH/3T3 cells after 24 hrs by MTT assay; assay type: cell-based; conditions: NIH3T3, 24 h
C6 [4] = test: Cytotoxicity against rat C6 cells assessed as cell viability at 200 ug/ml after 24 hrs by MTT assay relative to control; assay type: functional; conditions: C6, 24 h, read-out: Activity
C6 [5] = test: Cytotoxicity against rat C6 cells assessed as cell viability at 100 ug/ml after 24 hrs by MTT assay relative to control; assay type: functional; conditions: C6, 24 h, read-out: Activity
C6 [6] = test: Cytotoxicity against rat C6 cells assessed as cell viability at 50 ug/ml after 24 hrs by MTT assay relative to control; assay type: functional; conditions: C6, 24 h, read-out: Activity
C6 [7] = test: Cytotoxicity against rat C6 cells assessed as cell viability at 25 ug/ml after 24 hrs by MTT assay relative to control; assay type: functional; conditions: C6, 24 h, read-out: Activity
C6 [8] = test: Cytotoxicity against rat C6 cells assessed as cell viability at 12 ug/ml after 24 hrs by MTT assay relative to control; assay type: functional; conditions: C6, 24 h, read-out: Activity
C6 [9] = test: Cytotoxicity against rat C6 cells assessed as cell viability at 6 ug/ml after 24 hrs by MTT assay relative to control; assay type: functional; conditions: C6, 24 h, read-out: Activity
Candida albicans = test: Antimicrobial activity against Candida albicans ATCC 22019 after 18 to 24 hrs by microbroth dilution method; assay type: functional
Fusarium culmorum = test: Antimicrobial activity against wild type Fusarium culmorum after 48 to 72 hrs by microbroth dilution method; assay type: functional
Fusarium verticillioides = test: Antimicrobial activity against Fusarium moniliforme NRRL 1866 after 48 to 72 hrs by microbroth dilution method; assay type: functional
Fusarium solani = test: Antimicrobial activity against Fusarium solani NRRL 13414 after 48 to 72 hrs by microbroth dilution method; assay type: functional
Aspergillus ochraceus = test: Antimicrobial activity against Aspergillus ochraceus NRRL 3174 after 48 to 72 hrs by microbroth dilution method; assay type: functional
Trichoderma harzianum = test: Antimicrobial activity against Trichoderma harzianum NRRL 20565 after 48 to 72 hrs by microbroth dilution method; assay type: functional
Penicillium chrysogenum = test: Antimicrobial activity against Penicillium chrysogenum NRRL 1951 after 48 to 72 hrs by microbroth dilution method; assay type: functional
Aspergillus parasiticus = test: Antimicrobial activity against Aspergillus parasiticus NRRL 465 after 48 to 72 hrs by microbroth dilution method; assay type: functional
Bacillus subtilis = test: Antimicrobial activity against Bacillus subtilis NRS-744 after 18 to 24 hrs by microbroth dilution method; assay type: functional
Micrococcus luteus = test: Antimicrobial activity against Micrococcus luteus NRLL B-4375 after 18 to 24 hrs by microbroth dilution method; assay type: functional
Pseudomonas aeruginosa = test: Antimicrobial activity against Pseudomonas aeruginosa […] after 18 to 24 hrs by microbroth dilution method; assay type: functional
Escherichia coli = test: Antimicrobial activity against Escherichia coli ATCC 25922 after 18 to 24 hrs by microbroth dilution method; assay type: functional
Listeria monocytogenes = test: Antimicrobial activity against Listeria monocytogenes ATCC 7644 after 18 to 24 hrs by microbroth dilution method; assay type: functional
Staphylococcus aureus = test: Antimicrobial activity against Staphylococcus aureus NRRL B-767 after 18 to 24 hrs by microbroth dilution method; assay type: functional

Row | Compound | MIC (Candida albicans) [µg/mL] | MIC (Fusarium culmorum) [µg/mL] | MIC (Fusarium verticillioides) [µg/mL] | MIC (Fusarium solani) [µg/mL] | MIC (Aspergillus ochraceus) [µg/mL] | MIC (Trichoderma harzianum) [µg/mL] | MIC (Penicillium chrysogenum) [µg/mL] | MIC (Aspergillus parasiticus) [µg/mL] | MIC (Bacillus subtilis) [µg/mL] | MIC (Micrococcus luteus) [µg/mL] | inhibition (C6 [1]) | inhibition (C6 [2]) | IC50 (C6 [3]) [µg/mL] | IC50 (NIH3T3) [µg/mL] | viability at 200 µg/mL (C6 [4]) [%] | viability at 100 µg/mL (C6 [5]) [%] | viability at 50 µg/mL (C6 [6]) [%] | viability at 25 µg/mL (C6 [7]) [%] | viability at 12 µg/mL (C6 [8]) [%] | viability at 6 µg/mL (C6 [9]) [%] | further results
1 | O=C(CSc1nnnn1-c1ccccc1)N/N=c1/scc(-c2ccc(Br)cc2)n1-c1ccccc1 | 125 (≈ 221 µM) | 250 (≈ 443 µM) | 250 (≈ 443 µM) | 250 (≈ 443 µM) | 250 (≈ 443 µM) | 125 (≈ 221 µM) | 250 (≈ 443 µM) | 250 (≈ 443 µM) | 250 (≈ 443 µM) | 250 (≈ 443 µM) | Active | Dose-dependent effect | 21 (≈ 37.2 µM) | 433 (≈ 768 µM) | 20.4 | 24.3 | 32 | 47.9 | 58.6 | 61.8 | MIC (Pseudomonas aeruginosa): 250 µg/mL (≈ 443 µM); MIC (Escherichia coli): 250 µg/mL (≈ 443 µM); MIC (Listeria monocytogenes): 250 µg/mL (≈ 443 µM); MIC (Staphylococcus aureus): 250 µg/mL (≈ 443 µM)
2 | Cc1ccc(-c2cs/c(=N/NC(=O)CSc3nnnn3-c3ccccc3)n2-c2ccccc2)cc1 | 250 (≈ 500 µM) | 125 (≈ 250 µM) | 250 (≈ 500 µM) | 250 (≈ 500 µM) | 250 (≈ 500 µM) | 125 (≈ 250 µM) | 250 (≈ 500 µM) | 250 (≈ 500 µM) | 250 (≈ 500 µM) | 250 (≈ 500 µM) | Active | Dose-dependent effect | 14.7 (≈ 29.4 µM) | > 500 | 22.2 | 28.5 | 29.5 | 38.8 | 55.1 | 66.8 | MIC (Pseudomonas aeruginosa): 250 µg/mL (≈ 500 µM); MIC (Escherichia coli): 250 µg/mL (≈ 500 µM); MIC (Listeria monocytogenes): 250 µg/mL (≈ 500 µM); MIC (Staphylococcus aureus): 250 µg/mL (≈ 500 µM)
3 | O=C(CSc1nnnn1-c1ccccc1)N/N=c1/scc(-c2ccccc2)n1-c1ccccc1 | 250 (≈ 515 µM) | 125 (≈ 257 µM) | 250 (≈ 515 µM) | 250 (≈ 515 µM) | 250 (≈ 515 µM) | 125 (≈ 257 µM) | 250 (≈ 515 µM) | 250 (≈ 515 µM) | 500 (≈ 1030 µM) | 250 (≈ 515 µM) | Active | Dose-dependent effect | 8.3 (≈ 17.1 µM) | 417 (≈ 858 µM) | 22.6 | 35.8 | 36.7 | 42.5 | 47.1 | 52.1 | MIC (Pseudomonas aeruginosa): 250 µg/mL (≈ 515 µM); MIC (Escherichia coli): 250 µg/mL (≈ 515 µM); MIC (Listeria monocytogenes): 250 µg/mL (≈ 515 µM); MIC (Staphylococcus aureus): 250 µg/mL (≈ 515 µM)
4 | O=C(CSc1nnnn1-c1ccccc1)N/N=c1/scc(-c2ccc(F)cc2)n1-c1ccccc1 | 250 (≈ 496 µM) | 125 (≈ 248 µM) | 250 (≈ 496 µM) | 250 (≈ 496 µM) | 250 (≈ 496 µM) | 125 (≈ 248 µM) | 250 (≈ 496 µM) | 250 (≈ 496 µM) | 500 (≈ 993 µM) | 250 (≈ 496 µM) | Active | Dose-dependent effect | 24.3 (≈ 48.3 µM) | 207 (≈ 410 µM) | 30.6 | 35.8 | 43.7 | 49.3 | 60 | 74.9 | MIC (Pseudomonas aeruginosa): 250 µg/mL (≈ 496 µM); MIC (Escherichia coli): 250 µg/mL (≈ 496 µM); MIC (Listeria monocytogenes): 250 µg/mL (≈ 496 µM); MIC (Staphylococcus aureus): 250 µg/mL (≈ 496 µM)
5 | Cn1nnnc1SCC(=O)N/N=c1/scc(-c2ccc(C#N)cc2)n1-c1ccccc1 | 250 (≈ 557 µM) | 250 (≈ 557 µM) | 250 (≈ 557 µM) | 250 (≈ 557 µM) | 250 (≈ 557 µM) | 125 (≈ 279 µM) | 250 (≈ 557 µM) | 250 (≈ 557 µM) | 500 (≈ 1110 µM) | 250 (≈ 557 µM) | Active | Dose-dependent effect | 23.3 (≈ 51.9 µM) | 213 (≈ 476 µM) | 28.6 | 30.9 | 35.6 | 43.9 | 53.9 | 63.5 | MIC (Pseudomonas aeruginosa): 250 µg/mL (≈ 557 µM); MIC (Escherichia coli): 250 µg/mL (≈ 557 µM); MIC (Listeria monocytogenes): 250 µg/mL (≈ 557 µM); MIC (Staphylococcus aureus): 250 µg/mL (≈ 557 µM)
6 | Cc1nnc(SCC(=O)N/N=c2/scc(-c3ccc(Cl)cc3)n2-c2ccccc2)s1 | 250 (≈ 527 µM) | 250 (≈ 527 µM) | 250 (≈ 527 µM) | 250 (≈ 527 µM) | 250 (≈ 527 µM) | 125 (≈ 264 µM) | 250 (≈ 527 µM) | 250 (≈ 527 µM) | 250 (≈ 527 µM) | 250 (≈ 527 µM) | Active | Dose-dependent effect | 28 (≈ 59.1 µM) | 253 (≈ 534 µM) | 29 | 34.1 | 37.9 | 53.3 | 76.6 | 82.8 | MIC (Pseudomonas aeruginosa): 250 µg/mL (≈ 527 µM); MIC (Escherichia coli): 250 µg/mL (≈ 527 µM); MIC (Listeria monocytogenes): 250 µg/mL (≈ 527 µM); MIC (Staphylococcus aureus): 250 µg/mL (≈ 527 µM)

More lines, main results first:

Row | MIC (Candida albicans) [µg/mL] | MIC (Fusarium culmorum) [µg/mL] | MIC (Fusarium verticillioides) [µg/mL] | MIC (Fusarium solani) [µg/mL] | MIC (Aspergillus ochraceus) [µg/mL] | MIC (Trichoderma harzianum) [µg/mL] | MIC (Penicillium chrysogenum) [µg/mL] | MIC (Aspergillus parasiticus) [µg/mL] | MIC (Bacillus subtilis) [µg/mL] | MIC (Micrococcus luteus) [µg/mL] | Compound | inhibition (C6 [1]) | inhibition (C6 [2]) | IC50 (C6 [3]) [µg/mL] | IC50 (NIH3T3) [µg/mL] | viability at 200 µg/mL (C6 [4]) [%] | viability at 100 µg/mL (C6 [5]) [%] | viability at 50 µg/mL (C6 [6]) [%] | viability at 25 µg/mL (C6 [7]) [%] | viability at 12 µg/mL (C6 [8]) [%] | viability at 6 µg/mL (C6 [9]) [%] | further results
7 | 250 (≈ 532 µM) | 250 (≈ 532 µM) | 250 (≈ 532 µM) | 250 (≈ 532 µM) | 250 (≈ 532 µM) | 125 (≈ 266 µM) | 250 (≈ 532 µM) | 250 (≈ 532 µM) | 250 (≈ 532 µM) | 250 (≈ 532 µM) | COc1ccc(-c2cs/c(=N/NC(=O)CSc3nnc(C)s3)n2-c2ccccc2)cc1 | Active | Dose-dependent effect | 18.7 (≈ 39.8 µM) | 300 (≈ 639 µM) | 22.2 | 25.9 | 31.5 | 42.6 | 53.6 | 57.9 | MIC (Pseudomonas aeruginosa): 250 µg/mL (≈ 532 µM); MIC (Escherichia coli): 250 µg/mL (≈ 532 µM); MIC (Listeria monocytogenes): 250 µg/mL (≈ 532 µM); MIC (Staphylococcus aureus): 250 µg/mL (≈ 532 µM)
8 | 250 (≈ 546 µM) | 250 (≈ 546 µM) | 250 (≈ 546 µM) | 250 (≈ 546 µM) | 250 (≈ 546 µM) | 125 (≈ 273 µM) | 250 (≈ 546 µM) | 250 (≈ 546 µM) | 250 (≈ 546 µM) | 250 (≈ 546 µM) | Cc1nnc(SCC(=O)N/N=c2/scc(-c3ccc(F)cc3)n2-c2ccccc2)s1 | Active | Dose-dependent effect | 27.3 (≈ 59.7 µM) | 383 (≈ 838 µM) | 26.5 | 34.9 | 37.4 | 50.1 | 73.7 | 74.3 | MIC (Pseudomonas aeruginosa): 250 µg/mL (≈ 546 µM); MIC (Escherichia coli): 250 µg/mL (≈ 546 µM); MIC (Listeria monocytogenes): 250 µg/mL (≈ 546 µM); MIC (Staphylococcus aureus): 250 µg/mL (≈ 546 µM)
9 | 250 (≈ 551 µM) | 250 (≈ 551 µM) | 250 (≈ 551 µM) | 250 (≈ 551 µM) | 250 (≈ 551 µM) | 250 (≈ 551 µM) | 250 (≈ 551 µM) | 250 (≈ 551 µM) | 500 (≈ 1100 µM) | 250 (≈ 551 µM) | Cc1ccc(-c2cs/c(=N/NC(=O)CSc3nnc(C)s3)n2-c2ccccc2)cc1 | Active | Dose-dependent effect | 25.3 (≈ 55.8 µM) | 373 (≈ 823 µM) | 13.3 | 31.5 | 40.6 | 50.1 | 58.3 | 65.9 | MIC (Pseudomonas aeruginosa): 250 µg/mL (≈ 551 µM); MIC (Escherichia coli): 250 µg/mL (≈ 551 µM); MIC (Listeria monocytogenes): 250 µg/mL (≈ 551 µM); MIC (Staphylococcus aureus): 500 µg/mL (≈ 1100 µM)
